From PubChem BioAssay (NCI)
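1) Cells in 96-well plates. 2) Compound, 48 h, 5 concentrations. 3) Linear interpolation between surrounding doses. 4) Unreached endpoint = highest concentration. GI50 = concentration required for 50% inhibition of growth. TGI denotes the concentration required for complete inhibition of growth.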

Experiments:
Assay in all cases: NCI anticancer screen, dose series, 48 h
LOX IMVI melanoma = tested on: LOX IMVI melanoma
OVCAR-5 ovarian = tested on: OVCAR-5 ovarian
KM12 colon = tested on: KM12 colon
UO-31 renal = tested on: UO-31 renal
DLD-1 colon = tested on: DLD-1 colon
HCT-15 colon = tested on: HCT-15 colon
SF-268 CNS = tested on: SF-268 CNS
HOP-62 NSCLC = tested on: HOP-62 NSCLC
SK-MEL-5 melanoma = tested on: SK-MEL-5 melanoma
OVCAR-3 ovarian = tested on: OVCAR-3 ovarian
SN12C renal = tested on: SN12C renal
HCC-2998 colon = tested on: HCC-2998 colon
SF-539 CNS = tested on: SF-539 CNS
UACC-62 melanoma = tested on: UACC-62 melanoma
HOP-18 NSCLC = tested on: HOP-18 NSCLC
A549 NSCLC = tested on: A549 NSCLC
MALME-3M melanoma = tested on: MALME-3M melanoma
SNB-19 CNS = tested on: SNB-19 CNS
COLO 205 colon = tested on: COLO 205 colon
SK-MEL-28 melanoma = tested on: SK-MEL-28 melanoma
TK-10 renal = tested on: TK-10 renal
NCI-H23 lung = tested on: NCI-H23 lung
NCI-H226 lung = tested on: NCI-H226 lung
SK-OV-3 ovarian = tested on: SK-OV-3 ovarian
CCRF-CEM leukemia = tested on: CCRF-CEM leukemia
SK-MEL-2 melanoma = tested on: SK-MEL-2 melanoma
EKVX NSCLC = tested on: EKVX NSCLC
XF 498 CNS = tested on: XF 498 CNS
HT29 colon = tested on: HT29 colon
RXF 393 renal = tested on: RXF 393 renal
M14 melanoma = tested on: M14 melanoma
MOLT-4 leukemia = tested on: MOLT-4 leukemia
DMS 114 small cell lung = tested on: DMS 114 small cell lung
RPMI-8226 leukemia = tested on: RPMI-8226 leukemia
ACHN renal = tested on: ACHN renal
U251 CNS = tested on: U251 CNS
OVCAR-8 ovarian = tested on: OVCAR-8 ovarian
CAKI-1 renal = tested on: CAKI-1 renal
DMS 273 small cell lung = tested on: DMS 273 small cell lung
HL-60(TB) leukemia = tested on: HL-60(TB) leukemia
SR leukemia = tested on: SR leukemia
LXFL 529 NSCLC = tested on: LXFL 529 NSCLC
K-562 leukemia = tested on: K-562 leukemia
NCI-H522 lung = tested on: NCI-H522 lung
KM20L2 colon = tested on: KM20L2 colon
HCT-116 colon = tested on: HCT-116 colon
SW-620 colon = tested on: SW-620 colon
NCI-H460 lung = tested on: NCI-H460 lung
M19-MEL melanoma = tested on: M19-MEL melanoma
IGROV1 ovarian = tested on: IGROV1 ovarian
UACC-257 melanoma = tested on: UACC-257 melanoma
786-0 renal = tested on: 786-0 renal
SF-295 CNS = tested on: SF-295 CNS
OVCAR-4 ovarian = tested on: OVCAR-4 ovarian
HOP-92 NSCLC = tested on: HOP-92 NSCLC
A498 renal = tested on: A498 renal
SNB-75 CNS = tested on: SNB-75 CNS

NC(=O)C1(c2ccccc2)Nc2ccccc2S1 (centres undefined)
TGI (LOX IMVI melanoma): > 100 µM | TGI (OVCAR-5 ovarian): > 100 µM | TGI (KM12 colon): > 100 µM | TGI (UO-31 renal): > 100 µM | TGI (DLD-1 colon): > 100 µM | TGI (HCT-15 colon): > 100 µM | TGI (SF-268 CNS): > 100 µM | TGI (HOP-62 NSCLC): > 100 µM | TGI (SK-MEL-5 melanoma): > 100 µM | TGI (OVCAR-3 ovarian): > 100 µM | TGI (SN12C renal): > 100 µM | TGI (HCC-2998 colon): > 100 µM | TGI (SF-539 CNS): > 100 µM | TGI (UACC-62 melanoma): > 100 µM | TGI (HOP-18 NSCLC): > 100 µM | TGI (A549 NSCLC): > 100 µM | TGI (MALME-3M melanoma): > 100 µM | TGI (SNB-19 CNS): > 100 µM | TGI (COLO 205 colon): > 100 µM | TGI (SK-MEL-28 melanoma): > 100 µM | TGI (TK-10 renal): > 100 µM | TGI (NCI-H23 lung): > 100 µM | TGI (NCI-H226 lung): > 100 µM | TGI (SK-OV-3 ovarian): > 100 µM | TGI (CCRF-CEM leukemia): > 100 µM | TGI (SK-MEL-2 melanoma): > 100 µM | TGI (EKVX NSCLC): > 100 µM | TGI (XF 498 CNS): > 100 µM | TGI (HT29 colon): > 100 µM | TGI (RXF 393 renal): > 100 µM | TGI (M14 melanoma): > 100 µM | TGI (MOLT-4 leukemia): > 100 µM | TGI (DMS 114 small cell lung): > 100 µM | TGI (RPMI-8226 leukemia): > 100 µM | TGI (ACHN renal): > 100 µM | TGI (U251 CNS): > 100 µM | TGI (OVCAR-8 ovarian): > 100 µM | TGI (CAKI-1 renal): > 100 µM | TGI (DMS 273 small cell lung): > 100 µM | TGI (HL-60(TB) leukemia): > 100 µM | TGI (SR leukemia): > 100 µM | TGI (LXFL 529 NSCLC): > 100 µM | TGI (K-562 leukemia): > 100 µM | TGI (NCI-H522 lung): > 100 µM | TGI (KM20L2 colon): > 100 µM | TGI (HCT-116 colon): > 100 µM | TGI (SW-620 colon): > 100 µM | TGI (NCI-H460 lung): > 100 µM | TGI (M19-MEL melanoma): > 100 µM

CC(=O)[CH-]C(C)=O.CC(=O)[CH-]C(C)=O.[CH2-]CCCCCCC.[CH2-]CCCCCCC.[Sn+4]
GI50 (LOX IMVI melanoma): 13.8 µM | TGI (LOX IMVI melanoma): 27 µM | GI50 (OVCAR-5 ovarian): 15.5 µM | TGI (OVCAR-5 ovarian): 37.7 µM | GI50 (KM12 colon): 16.7 µM | TGI (KM12 colon): 34.4 µM | GI50 (UO-31 renal): 17.2 µM | TGI (UO-31 renal): 34.8 µM | GI50 (DLD-1 colon): 18.8 µM | TGI (DLD-1 colon): 45.2 µM | GI50 (HCT-15 colon): 23.2 µM | TGI (HCT-15 colon): 56.2 µM | GI50 (SF-268 CNS): 18.9 µM | TGI (SF-268 CNS): 57.9 µM | GI50 (IGROV1 ovarian): 20.3 µM | TGI (IGROV1 ovarian): 49.2 µM | GI50 (HOP-62 NSCLC): 22.4 µM | TGI (HOP-62 NSCLC): 40.9 µM | GI50 (UACC-257 melanoma): 17.8 µM | TGI (UACC-257 melanoma): 34.9 µM | GI50 (SK-MEL-5 melanoma): 17.7 µM | TGI (SK-MEL-5 melanoma): 32 µM | GI50 (OVCAR-3 ovarian): 15.9 µM | TGI (OVCAR-3 ovarian): 33.8 µM | GI50 (SN12C renal): 22.7 µM | TGI (SN12C renal): 59.1 µM | GI50 (HCC-2998 colon): 17 µM | TGI (HCC-2998 colon): 31.5 µM | GI50 (SF-539 CNS): 22.2 µM | TGI (SF-539 CNS): 58.6 µM | GI50 (UACC-62 melanoma): 15.6 µM | TGI (UACC-62 melanoma): 29.4 µM | GI50 (HOP-18 NSCLC): > 100 µM | TGI (HOP-18 NSCLC): > 100 µM | GI50 (A549 NSCLC): 45.6 µM | TGI (A549 NSCLC): > 100 µM | GI50 (MALME-3M melanoma): 17.6 µM | TGI (MALME-3M melanoma): 39.5 µM | GI50 (786-0 renal): 15.8 µM | TGI (786-0 renal): 30.1 µM | GI50 (SNB-19 CNS): 17.5 µM | TGI (SNB-19 CNS): 35.8 µM | GI50 (COLO 205 colon): 14.7 µM | TGI (COLO 205 colon): 28.8 µM | GI50 (SF-295 CNS): 15.4 µM | TGI (SF-295 CNS): 30.6 µM | GI50 (SK-MEL-28 melanoma): 14.7 µM | TGI (SK-MEL-28 melanoma): 28.4 µM | GI50 (TK-10 renal): 23.7 µM | TGI (TK-10 renal): 45.2 µM | GI50 (NCI-H23 lung): 18.7 µM | TGI (NCI-H23 lung): 33.6 µM | GI50 (NCI-H226 lung): 26.2 µM | TGI (NCI-H226 lung): 52.3 µM | GI50 (SK-OV-3 ovarian): 25.5 µM | TGI (SK-OV-3 ovarian): 67.1 µM | GI50 (CCRF-CEM leukemia): 27 µM | TGI (CCRF-CEM leukemia): 69 µM | GI50 (SK-MEL-2 melanoma): 14.8 µM | TGI (SK-MEL-2 melanoma): 32 µM | GI50 (EKVX NSCLC): 14.7 µM | TGI (EKVX NSCLC): 35.4 µM | GI50 (XF 498 CNS): 11.8 µM | TGI (XF 498 CNS): 24.1 µM | GI50 (HT29 colon): 23.5 µM | TGI (HT29 colon): 59.6 µM | GI50 (RXF 393 renal): 14.6 µM | TGI (RXF 393 renal): 32.9 µM | GI50 (M14 melanoma): 18.5 µM | TGI (M14 melanoma): 35.5 µM | GI50 (MOLT-4 leukemia): 37.2 µM | TGI (MOLT-4 leukemia): 73 µM | GI50 (DMS 114 small cell lung): 16.7 µM | TGI (DMS 114 small cell lung): 31.2 µM | GI50 (RPMI-8226 leukemia): 18.5 µM | TGI (RPMI-8226 leukemia): 40.4 µM | GI50 (ACHN renal): 28.3 µM | TGI (ACHN renal): 70.4 µM | GI50 (U251 CNS): 15 µM | TGI (U251 CNS): 28.3 µM | GI50 (OVCAR-8 ovarian): 16.8 µM | TGI (OVCAR-8 ovarian): 32.1 µM | GI50 (CAKI-1 renal): 36.7 µM | TGI (CAKI-1 renal): > 100 µM | GI50 (HL-60(TB) leukemia): 21.1 µM | TGI (HL-60(TB) leukemia): 81.6 µM | GI50 (SR leukemia): 39.9 µM | TGI (SR leukemia): 62.4 µM | GI50 (OVCAR-4 ovarian): 22.3 µM | TGI (OVCAR-4 ovarian): 78.6 µM | GI50 (LXFL 529 NSCLC): 16.2 µM | TGI (LXFL 529 NSCLC): 30.1 µM | GI50 (HOP-92 NSCLC): 18.1 µM | TGI (HOP-92 NSCLC): 40.7 µM | GI50 (A498 renal): 23 µM | TGI (A498 renal): 46.7 µM | GI50 (K-562 leukemia): 20.5 µM | TGI (K-562 leukemia): 93.5 µM | GI50 (SNB-75 CNS): 14.7 µM | TGI (SNB-75 CNS): 78.6 µM | GI50 (NCI-H522 lung): 20.3 µM | TGI (NCI-H522 lung): 46.2 µM | GI50 (KM20L2 colon): 25 µM | TGI (KM20L2 colon): 57.6 µM | GI50 (HCT-116 colon): 14.8 µM | TGI (HCT-116 colon): 29.1 µM | GI50 (SW-620 colon): 16.4 µM | TGI (SW-620 colon): 31.7 µM | GI50 (NCI-H460 lung): 17.3 µM | TGI (NCI-H460 lung): 37.8 µM
